# Test results as given in PMC9688475, “Identification and Analysis of Small Molecule Inhibitors of CRISPR-Cas9 in Human Cells” (Cells, 2022).
# “And” between values parts separate entries of the source, which are not always exact repeats. Equal values may be shown once.
# Assays:
# SpCas9 [1] = target: T1, SpCas9 (Streptococcus pyogenes serotype M1, UniProt Q99ZW2); test: Microscale thermophoresis (MST), SpCas9; type: binding; set-up: His6 (N); TEV site (N); made in house; host or cells: E. coli BL21 Star (DE3); settings: SpCas9–EGFP fusion protein 200 nM, 25 °C
# T1 sequence (Q99ZW2 whole entry, the tested form may be a part): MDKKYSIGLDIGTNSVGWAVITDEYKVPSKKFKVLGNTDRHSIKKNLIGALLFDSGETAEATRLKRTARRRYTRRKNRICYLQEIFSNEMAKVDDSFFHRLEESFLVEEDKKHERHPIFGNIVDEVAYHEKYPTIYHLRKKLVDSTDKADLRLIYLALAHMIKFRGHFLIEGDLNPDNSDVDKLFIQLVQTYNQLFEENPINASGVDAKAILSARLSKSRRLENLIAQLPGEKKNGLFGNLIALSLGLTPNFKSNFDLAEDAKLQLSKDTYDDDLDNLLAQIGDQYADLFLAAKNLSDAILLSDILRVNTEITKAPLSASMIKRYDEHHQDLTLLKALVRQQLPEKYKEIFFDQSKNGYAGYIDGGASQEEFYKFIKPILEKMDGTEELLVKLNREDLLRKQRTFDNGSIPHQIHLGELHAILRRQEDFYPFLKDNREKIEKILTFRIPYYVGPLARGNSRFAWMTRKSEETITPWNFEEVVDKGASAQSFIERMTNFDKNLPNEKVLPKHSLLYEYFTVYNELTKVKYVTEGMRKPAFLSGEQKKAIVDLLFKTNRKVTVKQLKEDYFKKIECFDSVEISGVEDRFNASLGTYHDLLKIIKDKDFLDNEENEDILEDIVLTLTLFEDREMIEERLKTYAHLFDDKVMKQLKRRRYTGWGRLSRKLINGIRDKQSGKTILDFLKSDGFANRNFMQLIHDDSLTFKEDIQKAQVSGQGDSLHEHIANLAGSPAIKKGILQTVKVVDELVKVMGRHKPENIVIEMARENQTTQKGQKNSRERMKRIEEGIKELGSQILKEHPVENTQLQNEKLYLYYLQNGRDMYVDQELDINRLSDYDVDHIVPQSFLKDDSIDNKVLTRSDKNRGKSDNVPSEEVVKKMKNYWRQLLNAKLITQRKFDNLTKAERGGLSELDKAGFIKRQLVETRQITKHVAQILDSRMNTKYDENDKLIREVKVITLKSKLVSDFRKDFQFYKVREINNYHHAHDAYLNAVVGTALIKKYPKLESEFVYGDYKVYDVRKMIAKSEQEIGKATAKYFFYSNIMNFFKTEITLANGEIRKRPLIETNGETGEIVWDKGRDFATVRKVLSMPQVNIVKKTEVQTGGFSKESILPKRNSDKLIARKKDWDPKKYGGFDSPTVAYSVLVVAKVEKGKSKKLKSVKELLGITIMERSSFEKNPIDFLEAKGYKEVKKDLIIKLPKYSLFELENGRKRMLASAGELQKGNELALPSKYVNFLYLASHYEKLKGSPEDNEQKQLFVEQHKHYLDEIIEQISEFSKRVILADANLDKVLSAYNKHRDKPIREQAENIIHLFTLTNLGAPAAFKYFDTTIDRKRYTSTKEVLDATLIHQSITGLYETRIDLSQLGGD
# Protocol: (§1) The MST method was carried out similar to the previous report. The binding ability of the compounds to SpCas9 in different states was tested by Monolith NT.115 (NanoTemper Technologies, Munich, Germany). The SpCas9-EGFP fusion protein or the SpCas9-EGFP/gRNA RNP complex (protein: gRNA = 1:1) was diluted with a binding buffer (50 mM Tris-HCl, pH 7.4, 150 mM NaCl, 0.05% Tween-20, and 10 mM MgCl2) to make a final concentration of 200 nM. The protein diluent was mixed with the compound diluent in equal volume. The mixture was kept at room temperature for 10 min. Then the sample was loaded into the NanoTemper standard capillaries. All experiments were carried out at 25 °C, 80% MST power, and 50% LED power. The data were analyzed with the NanoTemper MO affinity analysis software (NanoTemper Technologies, Munich, Germany). The raw data were then exported and plotted with Origin 2020b (OriginLab, Northampton, MA, USA).
# SpCas9 [2] = target: T1, SpCas9; test: Inhibition of SpCas9 nuclease activity in EGFP/iCas9/gRNA-EGFP reporter 293T cells (flow cytometry); type: cell-based; set-up: expressed in transfected cells; host or cells: H2AX-EGFP HEK293T cells, lentiviral transduction, doxycycline-induced
# From the text: The H2AX-EGFP 293T cell line was first generated using the previously reported MMEJ-mediated CRIS-PITCh system. Briefly, we cloned two gRNAs (Supplementary Table S3) that respectively target H2AX gene and the PITCh vector into the px330 plasmid (Addgene, #42230). The PITCh vector contains a pair of 20-bp homologous sequences targeting the upstream and downstream regions of the H2AX gRNA cleavage site, and the SFB-EGFP expression cassette. The three plasmids were co-transfected into 293T cells at an equimolar ratio. GFP-positive cells were sorted by FACS and individually expanded to isolate single clones for genomic DNA extraction and PCR verification of successful knock-in (KI) of the SFB-EGFP cassette into 5′-end of first exon of the H2AX gene. The selected H2AX-EGFP 293T cell clone was subsequently infected with lentiviruses encoding tetracycline-inducible SpCas9 (iCas9). After drug selection, individual clones were again expanded and verified for inducible Cas9 expression. The selected clone was subsequently infected with lentivirus encoding a gRNA that targets EGFP. Puromycin-resistant clones ([…], Thermo Fisher Scientific) were then isolated after >7 days for further analysis.
# SpCas9 [3] = target: T1, SpCas9; test: On- and off-target editing at endogenous loci in iCas9 U2OS cells (deep sequencing); type: cell-based; set-up: expressed in transfected cells; settings: +Dox
# Protocol: The iCas9-expressing U2OS cells were first through lentiviral infection. The cells were cultured with 1 μg/mL puromycin until all cells in the negative control group were dead. Monoclonal cells were then isolated and verified. Lentiviruses encoding appropriate gRNAs were used to infect the iCas9 U2OS cells, which were further selected with 10 μg/mL Blasticidin S HCL (Gibco, New York, NY, USA) until all cells in the control group were dead. The iCas9/gRNA cells were then plated in 12-well plates (Thermo Fisher Scientific) at ~40% confluence per well at 24 h before the doxycycline (2 μg/mL) addition. An individual inhibitor compound was also added at this point at the appropriate concentrations. DMSO alone served as the control. Cells cultured without doxycycline served as the SpCas9 cleavage control. After 24 h, cells were collected for genomic DNA extraction using the AxyPrep blood genomic DNA miniprep kit (Axygen, New York, NY, USA). Sequences surrounding the on- and off-target sites were amplified using barcoded primers (Supplementary Table S3) and the KOD PCR kit (Toyobo, Japan) to generate the sequencing libraries. Single-read sequencing of the pooled samples were performed on the 150 Hiseq 2000 (Illumina, San Diego, CA, USA). Each experiment was repeated twice. MATLAB was used to split the sequencing file and CRISPResso2 [38] was used to analyze the frequency of indels.
# [4] = system: Flag-tagged SpCas9 protein expression; settings: western blot, GAPDH loading control, concentrations tested
# Protocol: The reporter 293T cells were seeded into 96-well plates at a density of 10,000 cells per well and cultured overnight before the addition of DMSO alone or various compounds (in DMSO solution) at appropriate concentrations (0.125–100 μM) with or without 2 μg/mL doxycycline for an additional 72 h of incubation. The cells were then harvested for analysis with the CytoFLEX flow cytometer (Beckman Coulter, Brea, CA, USA) or analyzed by western blot with antibodies as indicated. […] The inhibiting efficiency in reporter 293T cells was calculated using the following equation: E’ = (P2 − P1)/(P0 − P1) × 100%, where E’ is the inhibiting efficiency in reporter 293T cells, and P0, P1, and P2 are the GFP positive cell ratio of the uninduced group, Dox and DMSO treated control group, and Dox and compound treated group, respectively.
# FITC-DNA = settings: compared with DMSO, no SpCas9
# Protocol: The fluorescence polarization experiment was as previously reported [33]. […] The DNA was labeled at the 3′ end with fluorescein isothiocyanate (FITC). The other one is complementary to the first 58 bases of the previous oligonucleotide. These two oligonucleotides were annealed to generate the target DNA substrate labeled with fluorescent molecules (FITC-DNA). Unlabeled DNA (PAM-DNA) was considered competitive positive controls. Experiments were performed on black 384-well plates (Corning, New York, NY, USA). 50 nM SpCas9-gRNA (1:1) and different concentrations of the compound were added to the reaction buffer (50 mM Tris-HCl, pH 8.0, 0.1 M NaCl, 10 mM MgCl2, and 1 mM DTT). PAM-DNA (1250 nM) was used as a positive control. The mixture was then incubated at room temperature for 30 min, and FITC-DNA was added to the final concentration of 25 nM in each well. Fluorescence polarization signals were measured using a multilabel reader (Victor X5, PerkinElmer, Waltham, MA, USA) within 10 min. These values were plotted using GraphPad Prism 6.0 software (San Diego, CA, USA).
# dSpCas9–gRNA complex = test: Competitive fluorescence polarization assay, dSpCas9-gRNA; type: binding, Streptococcus pyogenes; settings: FITC-DNA 25 nM, compounds 50 μM, PAM-DNA 1.25 μM
# SpCas9–gRNA complex [5] = target: T2, SpCas9–gRNA complex (Streptococcus pyogenes serotype M1, UniProt Q99ZW2); test: Microscale thermophoresis (MST), SpCas9-gRNA RNP; type: binding; settings: SpCas9-EGFP/gRNA RNP (1:1) 200 nM, 25 °C
# T2 construct: His6 (N); TEV site (N); made in house; host or cells: E. coli BL21 Star (DE3)
# T2 sequence (Q99ZW2 whole entry, one chain of several): as the sequence (Q99ZW2 whole entry, the tested form may be a part) above
# Protocol: as §1
# LbCas12a = LbCas12a in vitro cleavage assay; type: biochemical; settings: 100 μM
# Protocol: In vitro cleavage experiments were performed using purified recombinant LbCas12a proteins similar to SpCas9 cleavage assays. LbCas12a proteins (50 nM), crRNA (50 nM), and different concentrations of the inhibitor compounds were mixed in NEBuffer 2 (New England Biolabs). After incubation at room temperature for 10 min, ScaI-linearized pUC19 DNA was added to a final concentration of 1.52 nM. The solution was vortex mixed and centrifuged, then incubated for 45 min in a water bath at 37 °C. The reaction was quenched with 0.5 μL proteinase K for 15 min at 56 °C. The samples were mixed with DNA loading buffers and resolved by 1.2% TAE agarose gel electrophoresis. Gel bands were visualized by Chemidoc XRS plus system (Bio-Rad, Hercules, CA, USA).
# SpCas9–gRNA complex [6] = target: T2, SpCas9–gRNA complex; test: Competitive fluorescence polarization assay, SpCas9-gRNA; type: binding
smiles,measurement,setting,value
CC1(C)CC(=NNc2ccc([N+](=O)[O-])cc2[N+](=O)[O-])CC(C)(C)N1C(=O)COCC(=O)N1C(C)(C)CC(=NNc2ccc([N+](=O)[O-])cc2[N+](=O)[O-])CC1(C)C [SP2],EC50,SpCas9 [1],44.2 ± 35.4 µM
same,SpCas9 inhibition in reporter cells,"SpCas9 [2]; 10 μM, Dox 2 μg/mL, 72 h",50%
same,inhibitory activity in reporter cells (in words),SpCas9 [2]; from 40 to 2 μM,changed little
same,EC50,"SpCas9 [2]; titration, Dox 2 μg/mL, 72 h, flow cytometry",5.07 µM
same,"reduction of SpCas9 off-target editing, EMX1-2",SpCas9 [3]; 2.5 μM,63.3%
same,Indel (%) EMX1-1 Off-target,"SpCas9 [3]; 24 h, SP2 2.5 μM, SP24 0.5 μM",21.7%
same,Indel (%) EMX1-1 On-target,"SpCas9 [3]; 24 h, SP2 2.5 μM, SP24 0.5 μM",42.2%
same,Indel (%) EMX1-2 Off-target,"SpCas9 [3]; 24 h, SP2 2.5 μM, SP24 0.5 μM",1.1%
same,Indel (%) EMX1-2 On-target,"SpCas9 [3]; 24 h, SP2 2.5 μM, SP24 0.5 μM",~ 18% and 17.8%
same,Indel (%) ZSCAN2 Off-target,"SpCas9 [3]; 24 h, SP2 2.5 μM, SP24 0.5 μM",6.7%
same,Indel (%) ZSCAN2 On-target,"SpCas9 [3]; 24 h, SP2 2.5 μM, SP24 0.5 μM",32.2%
same,"ratio of on-target vs. off-target indels, EMX1-1","SpCas9 [3]; 24 h, SP2 2.5 μM, SP24 0.5 μM",1.94 x
same,"ratio of on-target vs. off-target indels, EMX1-2","SpCas9 [3]; 24 h, SP2 2.5 μM, SP24 0.5 μM",16.18 x
same,"ratio of on-target vs. off-target indels, ZSCAN2","SpCas9 [3]; 24 h, SP2 2.5 μM, SP24 0.5 μM",4.81 x
same,Indel (%) VEGFA-3 Off-target,"SpCas9 [3]; 24 h, SP2 2.5 μM, SP24 1 μM",1.4%
same,Indel (%) VEGFA-3 On-target,"SpCas9 [3]; 24 h, SP2 2.5 μM, SP24 1 μM",35.2%
same,"ratio of on-target vs. off-target indels, VEGFA-3","SpCas9 [3]; 24 h, SP2 2.5 μM, SP24 1 μM",25.14 x
same,effect on SpCas9 expression,[4],Neither compound appeared to affect SpCas9 expression
same,effect on fluorescence polarization value of fluorescence-labeled DNA,FITC-DNA,did not affect
same,Fluorescence Polarization (mP),dSpCas9–gRNA complex,209.5 mP
same,EC50,SpCas9–gRNA complex [5],5.63 ± 3.65 µM
same,inhibition of LbCas12a-mediated cleavage,LbCas12a,no inhibition
same,change of FP signals of SpCas9-gRNA and DNA,SpCas9–gRNA complex [6]; 50 μM,< 5%
same,Fluorescence Polarization (mP),"SpCas9–gRNA complex [6]; SpCas9+gRNA 50 nM, FITC-DNA 25 nM, compounds 50 μM, PAM-DNA 1.25 μM",160.5 mP
